Assays:
Assay type in all cases: cell-based, human
TReP-132 mRNA = assay: Quantitative RT-PCR of TReP-132 mRNA in T47-D cells; conditions: 30 nM progesterone, 48 hours of exposure
Method: Total RNA from T47-D cells treated or not with progesterone was reverse transcribed and TReP-132 transcript levels were measured by quantitative RT-PCR as described in Gizard et al. (2004) using primers specific for […] and [NT]). […] Transfection was carried out by using the GeneSilencer reagent (Gene Therapy Systems, San Diego, USA) as directed by the manufacturer. Transfection efficiency was verified by FACS analysis (Fluorescence-Activated Cell Sorting) (see below). […] Statistical analyses were carried out with the nonparametric Kruskal-Wallis test.

[1] = test system: proximal Sp1 response element of the p21 and p27 promoters; assay: Chromatin immunoprecipitation with anti-TReP-132 antibody in T47-D cells; conditions: DNA from progesterone-treated vs untreated T47-D cells
Method: FIG. 14C: Chromatin was from T47-D cells treated or not with […] progesterone. IPs were carried out with anti-TReP-132 antibodies ([…]). Controls were DNA-free PCR products (column 1, H2O), PCR products of unprecipitated genomic DNA (columns 2 and 3, input), immunoprecipitations with no antibody (columns 4 and 5, no Ab) or with irrelevant antibody (columns 6 and 7, anti-HA). The extracted DNA was amplified using the same primers as in FIG. 13C.
HTO cells incubated in the presence of Dox or T47-D cells were grown to 70% confluence in petri dishes (150 mm diameter). For HTO cells, doxycycline was removed from half of the dishes 48 hours before lysis. T47-D cells were incubated with 30 nM progesterone or with ethanol containing 0.2% BSA-RPMI for 2.5 hours before lysis. Cell lysates were then sonicated on ice, 15 times for 15 seconds at 45 second intervals. A volume of lysate corresponding to 4×10^6 cells was immunoprecipitated by using 4 μg of antibody (indicated earlier) and an anti-HA antibody as negative control. The same volume was set aside for later purification of genomic DNA. […]

p27 promoter = assay: Luciferase reporter assay in T47-D cells, p27 promoter; conditions: 30 nM progesterone for 34 hours or TReP-132 expression vector
Method: (§1) FIGS. 14A and 14B: T47-D cells were cotransfected with reporter constructs containing the p21 (FIG. 14A) or p27 (FIG. 14B) promoter. Twelve hours post-transfection, the cells were incubated with 30 nM progesterone or ethanol for 34 hours. The cell lysates were then assayed for luciferase activity. Luciferase activity of the −93p21 Luc and −549p27 Luc constructs represent level 1. Arrows indicate transcription initiation sites.
(§2) The pGL2 and pGL3 reporter constructs (100 ng) were cotransfected with the indicated amounts of expression vectors and 10 ng of the control plasmid pRL.Null. The amount of plasmid was then normalized with the empty vector pcDNA3. After 12 hours of transfection, the medium was changed and cells were incubated for an additional 10 and 34 hours, respectively. During this period, T47-D cells were cultured in the presence and absence of progesterone (30 nM). The cells were then harvested and cell lysates (20 μl) were assayed for luciferase activity (Dual Luciférase™ Reporter Assay System, Promega, Madison, Wis., USA) in a Berthold LUMAT LB9501 luminometer. The transfections were performed in triplicate and each experiment was repeated at least three times.

p21 promoter = assay: Luciferase reporter assay in T47-D cells, p21 promoter; conditions: 30 nM progesterone for 34 hours or TReP-132 expression vector
Method: as §1, §2

HeLa cells = assay: Cell proliferation of HeLa Tet-off cells with inducible TReP-132 (HTO-GFP/TReP-132); conditions: HTO-GFP/TReP-132 cells, Dox removed, after 4 days of culture; with Dox about 16 hours
From the text: HeLa Tet-off cells expressing the tTA transactivator under the control of tetracycline or doxycycline (Dox) (Clontech Laboratories, Palo Alto, Calif.) were stably transfected with the pBI-EGFP-TReP-132 vector or the pBI-EGFP control vector. In order to select stably transfected cells, the pcDNA6 plasmid (Invitrogen, Ontario, CA) containing the blasticidin resistance gene was cotransfected at a ratio of 1:50. For these transfections, the cells were first seeded in 6-well plates at an initial density of 1×10^5 cells per well, incubated for 24 hours, then transfected with ExGen 500 (MBI Fermentas, Flamborough, Ontario, CA) at a ratio of 5 μl of ExGen 500 for a total of 1 μg of plasmid such as described hereinabove in the section “Colony formation assays”. 48 hours post-transfection, cells were selected for 2 weeks with blasticidin (Sigma-Aldrich CA Ltd.). Clearly visible colonies were then were picked and subcloned on 12-well plates to enable growth. […]
The cell proliferation rate was determined by the cellular DNA content using the fluorochorome DABA ([…]). […] Fluorescence was measured on a Perkin-Elmer LS-2B Filter Fluorimeter at an excitation wavelength of 400 nm and an emission wavelength of 508 nm. The DNA content was calculated from a standard curve of known quantities of salmon sperm DNA.

**Q.** For `CC(=O)[C@H]1CC[C@H]2[C@@H]3CCC4=CC(=O)CC[C@]4(C)[C@H]3CC[C@]12C` [progesterone, reference compound], which “TReP-132 mRNA levels, peak increase” value (TReP-132 mRNA) is on record?
**A.** Its value is 3 fold.

**Q.** And the “TReP-132 binding to proximal Sp1 response element of p21 and p27 promoters” value [1]?
**A.** Its value is “much more pronounced”.

**Q.** What about the p27 promoter activation (p27 promoter) of the same molecule?
**A.** The p27 promoter activation was “activated the two promoters”.

**Q.** What about the p21 promoter activation (p21 promoter) of the same molecule?
**A.** The p21 promoter activation was “activated the two promoters”.

B1: TReP-132: Transcriptional Regulating Protein of 132 kDa, polypeptide comprising SEQ ID NO: 2; here expressed in cells from vectors (protein)
chain: MGDQQLYKTNHVAHGSENLFYQQPPLGVHSGLNHNYGNAVTGGGMDAPQASPISPHFPQDTRDGLGLPVGSKNLGQMDTSRQGGWGSHAGPGNHVQLRGNLANSNMMWGAPAQAEPTDGYQYTYSQASEIRTQKLTSGVLHKLDSFTQVFANQNLRIQVNNMAQVLHTQSAVMDGAPDSALRQLLSQKPMEPPAPAIPSRYQQVPQQPHPGFTGGLSKPALQVGQHPTQGHLYYDYQQPLAQVPVQGGQPLQAPQMLSQHMQQMQQHQYYPPQQQQQAGQQRISMQEIQTQPQQIRPSQPQPPPQQQQPQQLQLQQRQGSMQIPQYYQPQPMMQHLQEQQQQQMHLQPPSYHRDPHQYTPEQAHTVQLIPLGSMSQYYYQEPQQPYSHPLYQQSHLSQHQQREDSQLKTYSSDRQAQAMLSSHGDLGPPDTGMGDPASSDLTRVSSTLPHRPLLSPSGIHLNNMGPQHQQLSPSAMWPQMHLPDGRAQPGSPESSGQPKGAFGEQFDAKNKLTCSICLKEFKNLPALNGHMRSHGGMRASPNLKQEEGEKVLPPQPQPPLPPPPPPPPPPQLPPEAESLTPMVMPVSVPVKLLPPKPSSQGFTNSTVAAPSARDKPASSMSDDEMPVLEIPRKHQPSVPKAEEPLKTVQEKKKFRHRPEPLFIPPPPSYNPNPAASYSGATLYQSQLRSPRVLGDHLLLDPTHELPPYTPPPMLSPVRQGSGLFSNVLISGHGPGAHPQLPLTPLTPTPRVLLCRSNSIDGSNVTVTPGPGEQTVDVEPRINIGLRFQAEIPELQDISALAQDTHKATLVWKPWPELENHDLQQRVENLLNLCCSSALPGGGTNSEFALHSLFEAKGDVMVALEMLLLRKPVRLKCHPLANYHYAGSDKWTSLERKLFNKALATYSKDFIFVQKMVKSKTVAQCVEYYYTWKKIMRLGRKHRTRLAEIIDDCVTSEEEEELEEEEEEDPEEDRKSTKEEESEVPKSPEPPPVPVLAPTEGPPLQALGQPSGSFICEMPNCGAVFSSRQALNGHARIHGGTNQVTKARGAIPSGKQKPGGTQSGYCSVKSSPSHSTTSGETDPTTIFPCKECGKVFFKIKSRNAHMKTHRQQEEQQRQKAQKAAFAAEMAATIERTTGPVGAPGLLPLDQLSLIKPIKDVDILDDDVVQQLGGVMEEAEVVDTDLLLDDQDSVLLQGDAEL
**Q.** For B1, which doubling time (HeLa cells) is on record?
**A.** The doubling time was “approximately 60 hours”.

**Q.** What about the p27 promoter activation (p27 promoter) of the same molecule?
**A.** The p27 promoter activation was “activated the two promoters”.

**Q.** What about the p21 promoter activation (p21 promoter) of the same molecule?
**A.** The p21 promoter activation was “activated the two promoters”.
